Measurements reported in the NIST ThermoML archive (doi:10.1021/je050050p).

Test: xn = mol fraction of the nth substance listed
Conditions: Liquid, Vibrating tube method

CN(C)C=O [dimethylformamide] + O=C=O
Conditions | mass density [kg/m3]
342.93 K, 22027 kPa, x2 = 0.2876 | 930.22
342.93 K, 23002 kPa, x2 = 0.2876 | 931.1
342.93 K, 24027 kPa, x2 = 0.2876 | 932.06
342.93 K, 25009 kPa, x2 = 0.2876 | 932.97
342.94 K, 7029 kPa, x2 = 0.4502 | 913.19
342.94 K, 8013 kPa, x2 = 0.4502 | 914.64
342.94 K, 9011 kPa, x2 = 0.4502 | 916.09
342.94 K, 9055 kPa, x2 = 0.4068 | 917.41
342.94 K, 9984 kPa, x2 = 0.4068 | 918.63
342.94 K, 9999 kPa, x2 = 0.4502 | 917.51
342.94 K, 11025 kPa, x2 = 0.4502 | 918.98
342.94 K, 11061 kPa, x2 = 0.4068 | 920.01
342.94 K, 11996 kPa, x2 = 0.4068 | 921.23
342.94 K, 12004 kPa, x2 = 0.4502 | 920.36
342.94 K, 13007 kPa, x2 = 0.4502 | 921.76
342.94 K, 13050 kPa, x2 = 0.4068 | 922.57
342.94 K, 13993 kPa, x2 = 0.4502 | 923.08
342.94 K, 14076 kPa, x2 = 0.4068 | 923.82
342.94 K, 15011 kPa, x2 = 0.4068 | 925
342.94 K, 15025 kPa, x2 = 0.4502 | 924.49
342.94 K, 16021 kPa, x2 = 0.4068 | 926.2
342.94 K, 16028 kPa, x2 = 0.4502 | 925.84
342.94 K, 17002 kPa, x2 = 0.4502 | 927.13
342.94 K, 17029 kPa, x2 = 0.4068 | 927.42
342.94 K, 18001 kPa, x2 = 0.4068 | 928.58
342.94 K, 18035 kPa, x2 = 0.4502 | 928.51
342.94 K, 19023 kPa, x2 = 0.4502 | 929.75
342.94 K, 19026 kPa, x2 = 0.4068 | 929.79
342.94 K, 20023 kPa, x2 = 0.4502 | 931
342.94 K, 20073 kPa, x2 = 0.4068 | 931.01
342.94 K, 21008 kPa, x2 = 0.4068 | 932.09
342.94 K, 21013 kPa, x2 = 0.4502 | 932.27
342.94 K, 22005 kPa, x2 = 0.4068 | 933.21
342.94 K, 22036 kPa, x2 = 0.4502 | 933.51
342.94 K, 22992 kPa, x2 = 0.4068 | 934.31
342.94 K, 23032 kPa, x2 = 0.4502 | 934.76
342.94 K, 24003 kPa, x2 = 0.4502 | 935.89
342.94 K, 24049 kPa, x2 = 0.4068 | 935.49
342.94 K, 25041 kPa, x2 = 0.4502 | 937.14
342.94 K, 25062 kPa, x2 = 0.4068 | 936.61
352.81 K, 11994 kPa, x2 = 0.6235 | 863.79
352.81 K, 13017 kPa, x2 = 0.6235 | 868.11
352.81 K, 14003 kPa, x2 = 0.6235 | 871.85
352.81 K, 15051 kPa, x2 = 0.6235 | 875.54
352.81 K, 16021 kPa, x2 = 0.6235 | 878.85
352.81 K, 17011 kPa, x2 = 0.6235 | 882.12
352.81 K, 18025 kPa, x2 = 0.6235 | 885.31
352.81 K, 19034 kPa, x2 = 0.6235 | 888.42
352.81 K, 20027 kPa, x2 = 0.6235 | 891.37
352.81 K, 20969 kPa, x2 = 0.6235 | 894.02
352.81 K, 22044 kPa, x2 = 0.6235 | 897.02
352.81 K, 22987 kPa, x2 = 0.6235 | 899.54
352.81 K, 24010 kPa, x2 = 0.6235 | 902.21
352.81 K, 25062 kPa, x2 = 0.6235 | 904.9
352.86 K, 16031 kPa, x2 = 0.8091 | 799.4
352.86 K, 17002 kPa, x2 = 0.8091 | 806.61
352.86 K, 17024 kPa, x2 = 0.9311 | 684.5
352.86 K, 18005 kPa, x2 = 0.9311 | 702.67
352.86 K, 18047 kPa, x2 = 0.8091 | 814.2
352.86 K, 19028 kPa, x2 = 0.9311 | 718.94
352.86 K, 19050 kPa, x2 = 0.8091 | 820.88
352.86 K, 20001 kPa, x2 = 0.9311 | 732.41
352.86 K, 20005 kPa, x2 = 0.8091 | 827.13
352.86 K, 21006 kPa, x2 = 0.9311 | 744.94
352.86 K, 21045 kPa, x2 = 0.8091 | 833.27
352.86 K, 22024 kPa, x2 = 0.9311 | 756.39
352.86 K, 22052 kPa, x2 = 0.8091 | 839.08
352.86 K, 23012 kPa, x2 = 0.9311 | 766.47
352.86 K, 23029 kPa, x2 = 0.8091 | 844.25
352.86 K, 23999 kPa, x2 = 0.9311 | 775.83
352.86 K, 24015 kPa, x2 = 0.8091 | 849.31
352.86 K, 25019 kPa, x2 = 0.9311 | 784.81
352.86 K, 25051 kPa, x2 = 0.8091 | 854.32
352.87 K, 7031 kPa, x2 = 0.2876 | 902.49
352.87 K, 8016 kPa, x2 = 0.2876 | 903.63
352.87 K, 9024 kPa, x2 = 0.2876 | 904.79
352.87 K, 10008 kPa, x2 = 0.4268 | 903.63
352.87 K, 10027 kPa, x2 = 0.2876 | 905.96
352.87 K, 11005 kPa, x2 = 0.4268 | 905.13
352.87 K, 11011 kPa, x2 = 0.2876 | 907.05
352.87 K, 12022 kPa, x2 = 0.2876 | 908.2
352.87 K, 12055 kPa, x2 = 0.4268 | 906.66
352.87 K, 13022 kPa, x2 = 0.2876 | 909.31
